In patent publication US9162992B2, “Compounds and compositions for treatment of breathing control disorders or diseases” (GALLEON PHARMACEUTICALS, INC., priority 2010, dated 2015):
Where “and” joins values, the source holds several entries; their conditions need not be identical. Equal entries are not always repeated. Structures can show the parent of a compound that is named as a salt. Blank lines part the entries; values can stand above or below the molecule they belong to.

Legend:
[1] = GMP drug product stability of final formulation (25° C./60% RH and 2-8° C.), degradant CLXXVIII; format: physicochemical
Excerpt: A batch of (XXXVI) formulated for clinical use was placed under formal GMP stability (Tables 20I.1 and […]).

[2] = biological target: T1, BK potassium channel expressed in GH3 cells (Rattus norvegicus, UniProt Q62976); assay: BK potassium channel current in GH3 cells, inside-out patches; format: cell-based; details: Almirite 1 (mM as printed)
T1 construct: endogenous in cells; host or cells: GH3 cells
Description: Stock solutions of the test article were prepared in dimethylsulfoxide (DMSO) and stored frozen. Test article concentrations were prepared fresh daily by diluting stock solutions into a physiological saline solution (composition in mM): KCl, 125; CaCl2, 8.5; HEPES, 10; EGTA, 11.25; pH adjusted to 7.2 with KOH (prepared weekly and refrigerated until used). All test solutions contained 0.1% DMSO.
GH3 cells were grown in culture using standard procedures. Ionic currents were measured from inside-out patches of GH3 cells. Channel activity was monitored in symmetrical K^+ conditions with a holding potential of −60 mV. Activities before and in the presence of each concentration of test articles were recorded for ≧3 minutes, respectively.
Data acquisition and analyses were performed using the suite of pCLAMP (Ver. 8.2) programs (MDS-AT, Sunnyvale, Calif. Percent inhibition by test article was calculated using the following equation: 100*(NPocontrol−NPotest)/NPocontrol Results

[3] = biological target: T2, rat KCNK3/TASK-1 (Rattus norvegicus, UniProt O54912); assay: Thallium flux through rat TASK-1 (KCNK3-CHO cells); format: cell-based; details: Tl+ flux; 3 nM to 30 μM; read-out: rTASK-1 IC50
T2 construct: expressed in transfected cells; host or cells: CHO cells (tetracycline-inducible)
Description: (§1) CHO cells expressing recombinant tetracycline-inducible rat KCNK3/TASK-1 (KCNK3-CHO cells) were plated in poly-D-lysine coated 384-well plates at a density of 6,000 cells/well (50 μl/well of 120,000 cells/mL) and allowed to incubate for 72 hrs in the presence of 5% CO2 and 1 μg/mL tetracycline at 30° C. HEK cells expressing recombinant tetracycline-inducible human KCNK9/TASK-3 (KCNK9-HEK cells) were plated at a density of 15,000 cells per well (50 μl/well, 300,000 cells/mL) and incubated overnight at 37° C. and 5% CO2 in the presence of 1 μg/mL tetracycline.
(§2) Drug plates were generated from 10 mM 100% DMSO mother plates. Compounds were transferred to 384-well drug plates and titrated with sequential 1:3 dilutions in 100% DMSO for a total of 9 dilutions. A dilution plate is made by taking 2.4 μl from the mother plate and adding to […] of assay buffer for a 12% DMSO dilution plate. From this dilution plate, a final daughter plate is generated by taking 1 μA of the dilution plate and adding to 40 μA of assay buffer for a final DMSO concentration of 0.3%. Each compound was evaluated in duplicate and the concentration range evaluated was 3 nM to 30 μM.
(§3) When thallium was added to extracellular solution with a stimulus to open channels, Tl^+ flowed down its concentration gradient into the cells and channel activity was detected with an indicator dye, FluxOR™, that increased in cytosolic fluorescence. The FluxOR™ indicator dye was loaded into cells as a membrane permeable acetoxymethyl ester. On the day of each assay, FluxOR™ assay buffer was made fresh from Hank's Balanced Saline Solution (HBSS) buffered with 20 mM HEPES and pH adjusted to 7.4 with NaOH. Dye loading solution was prepared per manufacturer's instructions, and 25 μl of dye solution applied to each well with a multidropper after plating medium was removed manually from cells. Dye was allowed to load for 90 minutes at room temperature in the dark.
(§4) After the 90 min dye loading incubation and subsequent manual dye removal, 24 μl of the drug daughter plate was transfer to cell plates by a cybi-well system and then incubated at room temperature for 20 minutes to allow for equilibration within wells. Stimulation buffer was prepared from 5× chloride-free buffer, thallium, and potassium sulfate containing 5 times the desired final assay concentration of 10 mM K^+ 2.8 mM Tl^+. Cell plates were then transferred to an FDSS 6000 kinetic imaging plate reader (Hamamatsu). Fluorescence at 525 nm (excitation 488 nm) was measured for 10 seconds at 1 Hz to establish baseline for the entire plate. After baseline was established, 6 μl/well of stimulation buffer was added and fluorescence signal recorded for another 140 seconds.
(§5) From the fluorescence signals in the absence and presence of Galleon compounds, Inhibitory concentration curves were plotted and IC50 values were estimated using a curve fitting algorithm.

[4] = biological target: T3, human KCNK9/TASK-3 (Homo sapiens, UniProt Q9NPC2); assay: Thallium flux through human TASK-3 (KCNK9-HEK cells); format: cell-based; details: Tl+ flux; 3 nM to 30 μM; read-out: hTASK-3 IC50
T3 construct: expressed in transfected cells; host or cells: HEK cells (tetracycline-inducible)
Description: as §1, §2, §3, §4, §5

[5] = system: spontaneously breathing rats; assay: Minute ventilation (MV) and cardiovascular parameters in naive rats; format: in vivo, rat; set-up: unit not given here
Description: (§6) All surgical procedures were performed under anesthesia induced by 2% isoflurane in compressed medical grade air. With rats in supine position, the right femoral vein was catheterized using polyethylene tubing (PE-50). This catheter was used for fluid and drug administration. Simultaneously, the right femoral artery was also catheterized for monitoring blood pressure and heart rate. In order to measure the respiratory parameters in spontaneously breathing rats, trachea was intubated using 13 gauge tracheal tube (2.5 mm ID, Instech Solomon, Pa.).
After establishing a stable base-line at 1.5% isoflurane, compounds (typically at a dose of 1 mpk) were administered IV, and ventilatory parameters were generated from spontaneously breathing rats, along with cardiovascular output (mean arterial pressure (MAP) and heart rate). Maximum peak minute ventilatory (MV) responses (MPR), along with changes in minute ventilation versus baseline (AMV) were obtained as shown in the tables below.

[6] = system: spontaneously breathing rats; assay: Dose-dependent effect on minute ventilation (MV) in naive rats; format: in vivo, rat; details: 1.5% isoflurane; for minute ventilation, dose dependence: cumulative IV doses
Description: as §6, with “pressure.” for “pressure and heart rate.”
After establishing a stable base-line at 1.5% isoflurane, cumulative dose-dependent (0.01, 0.03, 0.1, 0.3, 1, 3, 10 mg/kg) ventilatory responses to compounds (XXXVI) and (L), labeled as cmpd (A) and cmpd (B) respectively, were generated from spontaneously breathing rats. Maximum peak minute ventilatory (MV) values at each dose of corresponding drug were calculated and used for generating ED50 values.

[7] = system: morphine-induced respiratory depression; assay: Effects of morphine and compound on arterial blood gases in the rat; format: in vivo; details: opioid-treated rat
Description: Rats with pre-cannulated jugular vein and femoral arterial catheters (for administering drugs and obtaining blood samples respectively) were obtained from Harlan laboratories and kept at the animal facility at Galleon Pharmaceuticals until the experimental procedures. Each animal was dosed with morphine sulfate (10 mg/kg), dissolved in saline at a concentration of 10 mg/mL, via injection into the jugular vein over a period of 20 seconds with a 20 second flush of 0.9% NaCl saline. Prior to morphine administration, two 250 μL samples of arterial blood were aspirated from the femoral artery into a pre-heparinized syringe. The samples were analyzed on Radiometer's ABL Flex 800, where pO2, pCO2, pH, SaO2 and other parameters were recorded. Aspirated volumes of arterial blood were replaced by room temperature sterile saline (˜300 μL) slowly flushed back into the femoral arterial catheter of the rodent to prevent hypovolemia. Morphine was then administered and 2 minutes later another blood sample was taken.
The infusion started at t=15 minutes and ended at t=35 minutes. Arterial blood gas analysis occurred at time points t=12, 18, 25, 35, 40, 45, and 50 minutes.

[8] = Solubility in solvents and IV solutions; format: physicochemical; details: water, thermodynamic from solid, Solubility
Description: The solubility of (XXXXVI) and XXXV was evaluated in various solvents and IV solutions. Due to limits on the API supply at the time the study was conducted, most of the solvent systems were evaluated to a level of only 100 mg/mL even if the solution was not saturated at this level. Only in water was an attempt made to reach saturation solubility, regardless of how high that solubility might be. Solubility of the salt/free base in each solvent was evaluated in duplicate.
For solubility in water, drug was added with intermittent shaking to ensure that excess undissolved drug is present indicating saturation […]. The filtrates were diluted appropriately and analyzed for (XXXV) concentration by HPLC.

[9] = Table 8, 1 mpk, 20% HPβCD, pH 4

T2 sequence (O54912 whole entry): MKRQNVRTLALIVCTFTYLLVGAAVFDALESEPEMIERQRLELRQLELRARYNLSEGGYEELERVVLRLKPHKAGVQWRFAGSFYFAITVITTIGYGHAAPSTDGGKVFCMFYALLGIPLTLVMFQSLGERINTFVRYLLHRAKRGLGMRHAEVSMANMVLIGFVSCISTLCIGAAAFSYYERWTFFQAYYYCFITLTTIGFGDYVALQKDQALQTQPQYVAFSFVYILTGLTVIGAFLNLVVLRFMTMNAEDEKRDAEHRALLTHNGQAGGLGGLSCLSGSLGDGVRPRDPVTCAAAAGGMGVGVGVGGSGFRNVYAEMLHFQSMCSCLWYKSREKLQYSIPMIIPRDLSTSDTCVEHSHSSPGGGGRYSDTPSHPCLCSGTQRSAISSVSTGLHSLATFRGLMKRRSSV
T3 sequence (Q9NPC2 whole entry): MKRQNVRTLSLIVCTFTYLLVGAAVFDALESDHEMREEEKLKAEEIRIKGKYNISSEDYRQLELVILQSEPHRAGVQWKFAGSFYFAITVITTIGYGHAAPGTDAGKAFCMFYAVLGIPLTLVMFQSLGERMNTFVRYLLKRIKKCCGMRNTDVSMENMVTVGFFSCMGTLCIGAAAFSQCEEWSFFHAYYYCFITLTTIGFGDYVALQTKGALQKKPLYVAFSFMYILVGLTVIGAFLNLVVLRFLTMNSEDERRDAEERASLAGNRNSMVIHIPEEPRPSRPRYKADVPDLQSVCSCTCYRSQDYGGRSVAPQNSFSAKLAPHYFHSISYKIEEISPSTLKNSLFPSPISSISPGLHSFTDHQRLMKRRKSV
T1 sequence (Q62976 whole entry): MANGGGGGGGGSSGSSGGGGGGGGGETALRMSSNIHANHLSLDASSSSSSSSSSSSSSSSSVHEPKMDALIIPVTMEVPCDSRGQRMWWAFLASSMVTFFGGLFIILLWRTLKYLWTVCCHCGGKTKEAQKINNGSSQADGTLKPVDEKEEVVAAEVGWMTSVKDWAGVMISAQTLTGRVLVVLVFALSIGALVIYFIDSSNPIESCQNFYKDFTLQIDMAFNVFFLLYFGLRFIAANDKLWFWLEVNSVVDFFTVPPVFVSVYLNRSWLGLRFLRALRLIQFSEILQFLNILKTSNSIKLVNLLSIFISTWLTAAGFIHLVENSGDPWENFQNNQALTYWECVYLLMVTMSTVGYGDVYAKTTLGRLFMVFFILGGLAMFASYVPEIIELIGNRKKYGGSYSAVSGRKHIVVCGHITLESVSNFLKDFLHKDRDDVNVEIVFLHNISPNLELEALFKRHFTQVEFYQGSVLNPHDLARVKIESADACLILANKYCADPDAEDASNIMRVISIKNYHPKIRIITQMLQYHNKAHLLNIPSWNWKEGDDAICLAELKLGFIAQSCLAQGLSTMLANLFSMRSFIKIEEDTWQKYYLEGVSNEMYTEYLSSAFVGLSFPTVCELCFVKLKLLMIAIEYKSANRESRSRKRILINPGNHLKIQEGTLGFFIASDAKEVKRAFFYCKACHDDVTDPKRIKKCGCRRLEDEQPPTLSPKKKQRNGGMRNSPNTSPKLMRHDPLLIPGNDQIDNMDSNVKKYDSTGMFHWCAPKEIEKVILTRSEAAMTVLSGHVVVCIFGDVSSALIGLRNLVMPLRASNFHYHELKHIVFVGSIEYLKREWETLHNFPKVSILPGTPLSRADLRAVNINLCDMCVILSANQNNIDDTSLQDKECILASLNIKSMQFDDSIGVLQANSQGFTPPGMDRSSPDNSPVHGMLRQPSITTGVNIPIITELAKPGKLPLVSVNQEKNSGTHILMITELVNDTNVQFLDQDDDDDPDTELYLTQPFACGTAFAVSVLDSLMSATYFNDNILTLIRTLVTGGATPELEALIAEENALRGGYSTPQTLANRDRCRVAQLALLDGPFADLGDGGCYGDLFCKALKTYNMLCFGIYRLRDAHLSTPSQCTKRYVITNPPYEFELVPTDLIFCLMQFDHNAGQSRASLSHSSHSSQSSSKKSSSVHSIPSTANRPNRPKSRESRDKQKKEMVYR

Level of Degradant (CLXXVIII) in GMP lot# 041I0511 ([1]; 5° C., amb. RH, Inverted, T = 1 month): 0.03% | Level of Degradant (CLXXVIII) in GMP lot# 041I0511 ([1]; 5° C., amb. RH, Inverted, T = 3 month): 0.06% | Level of Degradant (CLXXVIII) in GMP lot# 041I0511 ([1]; 5° C., amb. RH, Inverted, T = 6 month): 0.08% | Level of Degradant (CLXXVIII) in GMP lot# 041I0511 ([1]; 5° C., amb. RH, Inverted, T = 9 month): 0.11% | Level of Degradant (CLXXVIII) in GMP lot# 041I0511 ([1]; 5° C., amb. RH, Upright, T = 6 month): 0.08% | Level of Degradant (CLXXVIII) in GMP lot# 041I0511 ([1]; Release Testing, Drug Product Production lot Sample Pull Beg.): 0.00% | Level of Degradant (CLXXVIII) in GMP lot# 041I0511 ([1]; Release Testing, Drug Product Production lot Sample Pull End): 0.00% | Level of Degradant (CLXXVIII) in GMP lot# 041I0511 ([1]; Release Testing, Drug Product Production lot Sample Pull Mid.): 0.00%
SMILES: CCCNc1nc(O)nc(NCCC)n1 [(CLXXVIII)]

Inhibition (%), Average [2]: 94.7% | NPo, Average [2]: 0.0010 | Inhibition (%) ([2]; single patch): 97.9% and 91.5% | NPo (total channel open probability) ([2]; single patch): 0.0009 and 0.0011
SMILES: C=CCNc1nc(NCC=C)nc(N2CCN(C(c3ccc(F)cc3)c3ccc(F)cc3)CC2)n1 [Almirite, almitrine, reference compound]

SMILES: CCCNc1nc(NN(C)C)c2ccn(C)c2n1 [CLXX, N,N-Dimethyl-N′-(2-n-propylamino-7-methyl-pyrrolo[2,3d]pyrimidin-4-yl)-hydrazine]
IC50 [3]: 160 nM | IC50 [4]: > 30000 nM | MV DMV ([5]; Table 8, 1 mpk, 15/65/20, pH 5): 89 | MV MPR ([5]; Table 8, 1 mpk, 15/65/20, pH 5): 167 | MV DMV [5, 9]: 83 | MV MPR [5, 9]: 175

IC50 [3]: 220 nM | IC50 [4]: > 30000 nM
SMILES: CCCNc1cc(N(C)OC)nc(NCCC)n1 [CXXI, 2,6-Bis-(N-n-propylamino)-[1,3]pyrimidin-4-yl)-N,O-dimethyl-hydroxylamine hydrogen sulfate]
minute ventilation, dose dependence [6]: increase minute ventilation in a dose-dependent manner

SMILES: CCCNc1nc(NCCC)nc(N(C)NC)n1.O=S(=O)(O)O [L, N-(4,6-Bis-n-propylamino-[1,3,5]triazin-2-yl)-N,N′-dimethyl-hydrazine hydrogen sulfate]
ED50 ([6]; Rattus norvegicus, cumulative IV doses 0.01-10 mg/kg, read-out: ED50, maximum peak minute ventilation): 0.13 mg/kg | minute ventilation, dose dependence [6]: increased minute ventilation in a dose-dependent manner | effects of opioid on blood gases and pH (pH, SaO2, pO2, pCO2) [7]: reverse the effects of opioid on blood gases and pH

IC50 [3]: 600 nM | IC50 [4]: > 30000 nM
SMILES: CCCNc1nc(NCCC)nc(NN(C)C)n1 [XLVI, N-(4,6-Bis-n-propylamino-[1,3,5]triazin-2-yl)-N′,N′-dimethylhydrazine]

SMILES: CCNc1nc(NCC)nc(N(C)OC)n1 [XXII, N-(4,6-Bis-ethylamino-[1,3,5]triazin-2-yl)-N,O-dimethyl-hydroxylamine hydrochloride]
MV MPR ([5]; 1 mpk IV, 20% HPβCD, pH 4-6): 252 | MV ΔMV ([5]; 1 mpk IV, 20% HPβCD, pH 4-6): 130

SMILES: CON(C)c1nc(NCC(C)C)nc(NCC(C)C)n1 [XXIX, N-(Bis-4,6-(2-methylpropylamino)) [1,3,5]triazin-2-yl)-N,O-dimethyl-hydroxylamine hydrochloride]
MV MPR ([5]; 1 mpk IV, 20% HPβCD, pH 4-6): 253 | MV ΔMV ([5]; 1 mpk IV, 20% HPβCD, pH 4-6): 161

solubility [8]: ~210 µg/mL
SMILES: CCCNc1nc(NCC2CC2)nc(N(C)OC)n1 [XXV, N-(4-Cyclopropylmethyl)-N-(6-n-propylamino) [1,3,5]triazin-2-yl)-N,O-dimethyl-hydroxylamine hydrochloride]
MV MPR ([5]; 1 mpk IV, 20% HPβCD, pH 4-6): 257 | MV ΔMV ([5]; 1 mpk IV, 20% HPβCD, pH 4-6): 126

SMILES: CON(C)c1nc(NC2CC2)nc(NC2CC2)n1 [XXXIII, 4,6-Bis-N-cyclopropylamino-[1,3,5]triazin-2-yl)-N,O-dimethyl-hydroxylamine hydrochloride]
MV MPR ([5]; 1 mpk IV, 20% HPβCD, pH 4-6): 147 | MV ΔMV ([5]; 1 mpk IV, 20% HPβCD, pH 4-6): 53

SMILES: CON(C)c1nc(NCC(C)(C)C)nc(NCC(C)(C)C)n1.Cl [XXXI]
MV DMV [5, 9]: 43 | MV MPR [5, 9]: 140
